The target of experiment [1] is CDK2/Cyclin A1 (Homo sapiens) (UniProt P24941+P78396). The experiment is described as follows: (§1) Selectivity interaction (LanthaScreen Eu Kinase Binding Assay) EUB0001632a CDK2. The experiment is classed as protein-complex assay. To be noted: at 10 µM. In general terms: Time-resolved FRET reads energy transfer from a long-lived donor to a nearby acceptor.
Experiment [2] has as its target CDK2/Cyclin O (Homo sapiens) (UniProt P24941+P22674). Described as §1. To be noted: at 10 µM. The class given is protein-complex assay.
Experiment [3] addresses Cyclin-dependent kinase 2/cyclin E1 (Homo sapiens) (UniProt P24864+P24941). The description is as §1. The experiment is classed as protein-complex assay. The following applies: at 10 µM.
For experiment [4], the target named is Phosphatidylinositol 4-kinase beta (Homo sapiens, UniProt Q9UBF8). The experiment is described as follows: Selectivity interaction (Kinase panel (KiNativ target engagement assay in Jurkat cells)) EUB0001635a PI4KB. The experiment is classed as cell-based. The following applies: Selectivity number of off-targets 0.0, Selectivity number of targets 233.0, Source Knowledge https://www.sciencedirect.com/science/article/pii/S2451945619300674?via%3Dihub, at 1 µM.
Sequence of Phosphatidylinositol 4-kinase beta (Q9UBF8 2-816 limits assumed): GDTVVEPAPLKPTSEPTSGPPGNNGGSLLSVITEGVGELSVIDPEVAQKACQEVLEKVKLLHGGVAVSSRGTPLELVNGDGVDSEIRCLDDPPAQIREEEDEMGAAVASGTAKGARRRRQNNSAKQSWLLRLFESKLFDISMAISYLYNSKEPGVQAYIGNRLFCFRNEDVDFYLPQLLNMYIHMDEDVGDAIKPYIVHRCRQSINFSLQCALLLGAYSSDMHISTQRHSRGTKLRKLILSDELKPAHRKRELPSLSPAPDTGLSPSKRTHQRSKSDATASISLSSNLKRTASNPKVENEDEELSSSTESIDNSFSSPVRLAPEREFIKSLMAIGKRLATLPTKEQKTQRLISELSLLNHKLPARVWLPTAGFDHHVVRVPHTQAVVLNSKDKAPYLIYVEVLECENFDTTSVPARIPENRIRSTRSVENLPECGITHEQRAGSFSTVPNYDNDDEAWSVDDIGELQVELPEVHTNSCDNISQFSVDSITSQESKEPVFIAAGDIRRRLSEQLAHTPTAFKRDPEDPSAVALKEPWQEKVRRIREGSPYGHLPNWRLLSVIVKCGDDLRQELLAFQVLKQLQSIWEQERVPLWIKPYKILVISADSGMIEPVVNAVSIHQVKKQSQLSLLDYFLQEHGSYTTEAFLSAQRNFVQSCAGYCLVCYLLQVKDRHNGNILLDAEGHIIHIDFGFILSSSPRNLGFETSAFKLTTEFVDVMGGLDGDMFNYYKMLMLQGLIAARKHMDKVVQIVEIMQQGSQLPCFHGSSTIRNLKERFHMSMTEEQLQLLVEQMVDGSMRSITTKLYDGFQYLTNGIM

The target of experiment [5] is T1, Tyrosine-protein kinase TXK (Homo sapiens) (UniProt P42681).
T1 sequence (whole entry): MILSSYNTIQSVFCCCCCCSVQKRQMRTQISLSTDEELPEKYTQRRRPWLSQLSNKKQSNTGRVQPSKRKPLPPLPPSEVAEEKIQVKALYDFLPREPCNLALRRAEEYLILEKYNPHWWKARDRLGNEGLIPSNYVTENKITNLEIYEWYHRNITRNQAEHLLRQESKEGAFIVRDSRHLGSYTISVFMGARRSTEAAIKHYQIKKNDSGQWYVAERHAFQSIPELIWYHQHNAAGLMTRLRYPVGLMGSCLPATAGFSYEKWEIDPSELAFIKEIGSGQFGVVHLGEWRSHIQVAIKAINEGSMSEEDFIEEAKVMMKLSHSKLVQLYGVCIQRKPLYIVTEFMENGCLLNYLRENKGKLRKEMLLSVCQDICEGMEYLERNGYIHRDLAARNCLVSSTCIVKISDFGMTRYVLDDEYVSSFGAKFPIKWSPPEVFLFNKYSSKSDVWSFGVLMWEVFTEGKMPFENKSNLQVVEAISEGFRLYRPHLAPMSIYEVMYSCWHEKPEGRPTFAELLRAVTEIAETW
The experiment is described as follows: Selectivity interaction (Ambit KINOMEscan and KiNATiv profiling in Jurkat cells) EUB0000090b TXK. The class given is cell-based. To be noted: at 1 µM.

In experiment [6] the target is Mitogen-activated protein kinase 4 (Homo sapiens) (UniProt P31152). The experiment is described as follows: Selectivity interaction (KinomeScan (DiscoverX)) EUB0000229b MAPK4. The following applies: at 10 µM.
Sequence of Mitogen-activated protein kinase 4 (Homo sapiens) (P31152 whole entry): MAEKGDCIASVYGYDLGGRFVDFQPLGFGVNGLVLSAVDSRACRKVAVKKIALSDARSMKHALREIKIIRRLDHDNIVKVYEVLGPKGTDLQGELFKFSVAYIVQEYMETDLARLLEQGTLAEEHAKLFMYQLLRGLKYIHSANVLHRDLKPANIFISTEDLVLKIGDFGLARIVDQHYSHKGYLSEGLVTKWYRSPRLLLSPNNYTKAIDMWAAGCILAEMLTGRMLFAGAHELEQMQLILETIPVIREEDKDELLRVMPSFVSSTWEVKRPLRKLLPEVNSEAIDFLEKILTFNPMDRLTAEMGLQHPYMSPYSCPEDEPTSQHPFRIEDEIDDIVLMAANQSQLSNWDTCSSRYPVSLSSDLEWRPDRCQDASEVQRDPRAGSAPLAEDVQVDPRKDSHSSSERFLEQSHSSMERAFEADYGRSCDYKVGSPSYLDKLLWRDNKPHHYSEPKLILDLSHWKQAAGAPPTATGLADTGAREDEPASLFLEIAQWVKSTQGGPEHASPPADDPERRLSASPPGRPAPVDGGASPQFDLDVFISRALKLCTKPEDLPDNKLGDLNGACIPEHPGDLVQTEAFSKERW
The target in experiment [7] is T2, Histone-arginine methyltransferase CARM1 (Homo sapiens, UniProt Q86X55).
T2 sequence (Q86X55 whole entry): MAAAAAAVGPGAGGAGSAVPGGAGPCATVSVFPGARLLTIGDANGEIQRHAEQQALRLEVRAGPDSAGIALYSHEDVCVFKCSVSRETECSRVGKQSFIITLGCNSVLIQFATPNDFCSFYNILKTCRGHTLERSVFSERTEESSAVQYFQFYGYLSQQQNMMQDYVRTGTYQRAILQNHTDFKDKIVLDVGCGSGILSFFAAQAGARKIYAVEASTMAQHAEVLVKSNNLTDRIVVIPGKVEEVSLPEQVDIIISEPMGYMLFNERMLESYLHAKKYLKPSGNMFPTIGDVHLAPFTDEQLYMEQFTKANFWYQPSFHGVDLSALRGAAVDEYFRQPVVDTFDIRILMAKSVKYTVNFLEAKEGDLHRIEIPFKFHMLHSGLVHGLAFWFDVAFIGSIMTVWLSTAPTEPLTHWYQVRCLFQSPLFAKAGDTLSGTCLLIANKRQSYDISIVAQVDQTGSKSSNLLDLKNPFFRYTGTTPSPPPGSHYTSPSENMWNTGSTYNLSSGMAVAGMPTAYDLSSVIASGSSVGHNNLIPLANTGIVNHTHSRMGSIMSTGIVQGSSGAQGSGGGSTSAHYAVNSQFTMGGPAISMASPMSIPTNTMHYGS
As to the kind of experiment: Selectivity interaction (Western Blot (dimethylation of BAF155 (BAF155me2a/BAF155) in NCI-H929 cells)) EUB0000255b CARM1. The experiment is classed as cell-based. A general note: A western blot detects proteins with antibodies after separation by electrophoresis.

For experiment [8], the target named is MAP/microtubule affinity-regulating kinase 3 (Homo sapiens) (UniProt P27448). The experiment is described as follows: Selectivity interaction (KinomeScan (DiscoverX)) EUB0001079a MARK3. To be noted: at 1 µM.
Sequence of MAP/microtubule affinity-regulating kinase 3 (Homo sapiens) (P27448 whole entry, looked up): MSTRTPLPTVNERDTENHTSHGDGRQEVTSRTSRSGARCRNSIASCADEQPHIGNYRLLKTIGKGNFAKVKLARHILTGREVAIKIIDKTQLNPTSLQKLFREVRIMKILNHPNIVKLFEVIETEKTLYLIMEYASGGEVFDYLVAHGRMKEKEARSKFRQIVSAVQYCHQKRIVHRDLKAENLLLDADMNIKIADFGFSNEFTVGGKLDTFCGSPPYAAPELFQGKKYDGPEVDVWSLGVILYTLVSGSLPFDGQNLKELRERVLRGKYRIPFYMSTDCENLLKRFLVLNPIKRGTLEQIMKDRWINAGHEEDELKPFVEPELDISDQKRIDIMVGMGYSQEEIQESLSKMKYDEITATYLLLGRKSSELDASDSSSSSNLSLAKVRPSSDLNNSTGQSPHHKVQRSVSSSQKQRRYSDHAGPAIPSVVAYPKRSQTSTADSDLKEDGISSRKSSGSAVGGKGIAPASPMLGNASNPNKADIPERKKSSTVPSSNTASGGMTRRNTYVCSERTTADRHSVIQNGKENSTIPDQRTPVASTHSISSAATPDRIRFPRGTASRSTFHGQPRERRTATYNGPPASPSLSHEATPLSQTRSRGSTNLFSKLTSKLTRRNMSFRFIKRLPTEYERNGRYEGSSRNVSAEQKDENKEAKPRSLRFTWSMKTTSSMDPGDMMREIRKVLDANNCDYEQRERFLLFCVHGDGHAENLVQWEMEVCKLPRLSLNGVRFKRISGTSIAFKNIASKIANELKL
The target in experiment [9] is Misshapen-like kinase 1 (Homo sapiens, UniProt Q8N4C8). The experiment is described as follows: Selectivity interaction (KinomeScan (DiscoverX)) EUB0001079a MINK1. The following applies: at 1 µM.
Sequence of Misshapen-like kinase 1 (Q8N4C8 whole entry, looked up, canonical isoform): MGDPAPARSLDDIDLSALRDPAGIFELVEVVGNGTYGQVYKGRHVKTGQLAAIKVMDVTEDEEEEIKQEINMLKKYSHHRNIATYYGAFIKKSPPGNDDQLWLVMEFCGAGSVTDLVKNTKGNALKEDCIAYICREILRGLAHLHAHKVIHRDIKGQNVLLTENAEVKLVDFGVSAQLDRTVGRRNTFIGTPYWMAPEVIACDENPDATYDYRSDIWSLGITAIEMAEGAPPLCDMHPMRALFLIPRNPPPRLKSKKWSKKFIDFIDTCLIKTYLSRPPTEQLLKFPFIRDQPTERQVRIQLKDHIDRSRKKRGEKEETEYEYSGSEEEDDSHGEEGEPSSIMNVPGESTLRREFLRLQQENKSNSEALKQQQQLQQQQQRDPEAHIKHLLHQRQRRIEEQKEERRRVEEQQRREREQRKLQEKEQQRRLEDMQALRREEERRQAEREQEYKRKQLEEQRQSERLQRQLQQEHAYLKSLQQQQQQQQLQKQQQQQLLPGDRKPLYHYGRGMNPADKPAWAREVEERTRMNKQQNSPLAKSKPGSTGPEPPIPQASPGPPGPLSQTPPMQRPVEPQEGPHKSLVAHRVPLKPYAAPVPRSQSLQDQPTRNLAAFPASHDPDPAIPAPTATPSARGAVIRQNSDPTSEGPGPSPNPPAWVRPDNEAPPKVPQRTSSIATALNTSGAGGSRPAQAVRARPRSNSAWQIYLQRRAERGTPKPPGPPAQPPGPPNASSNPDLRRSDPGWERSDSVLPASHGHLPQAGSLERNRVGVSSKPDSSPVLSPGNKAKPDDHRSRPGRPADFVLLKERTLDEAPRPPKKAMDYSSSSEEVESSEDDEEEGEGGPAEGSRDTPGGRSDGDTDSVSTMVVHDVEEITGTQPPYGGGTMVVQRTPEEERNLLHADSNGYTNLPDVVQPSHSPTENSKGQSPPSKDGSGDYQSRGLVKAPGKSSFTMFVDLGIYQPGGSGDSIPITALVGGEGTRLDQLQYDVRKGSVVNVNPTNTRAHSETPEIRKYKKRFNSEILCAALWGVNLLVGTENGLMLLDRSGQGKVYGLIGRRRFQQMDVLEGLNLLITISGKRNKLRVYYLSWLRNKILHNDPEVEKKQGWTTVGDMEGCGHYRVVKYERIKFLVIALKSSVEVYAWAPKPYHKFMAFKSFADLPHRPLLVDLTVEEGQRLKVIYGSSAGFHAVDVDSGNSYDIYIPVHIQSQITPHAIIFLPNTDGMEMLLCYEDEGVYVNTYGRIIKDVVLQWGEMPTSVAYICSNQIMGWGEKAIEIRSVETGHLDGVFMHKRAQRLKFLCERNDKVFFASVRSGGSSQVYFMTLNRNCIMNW
In experiment [10] the target is Casein kinase I isoform gamma-2 (Homo sapiens) (UniProt P78368). The experiment is described as follows: Selectivity interaction (ActivX KiNativ screen (kinase selectivity in THP-1 cell lysates)) EUB0000639a CSNK1G2. The class given is subcellular. To be noted: lysate.
Sequence of Casein kinase I isoform gamma-2 (Homo sapiens) (P78368 whole entry, looked up, canonical isoform): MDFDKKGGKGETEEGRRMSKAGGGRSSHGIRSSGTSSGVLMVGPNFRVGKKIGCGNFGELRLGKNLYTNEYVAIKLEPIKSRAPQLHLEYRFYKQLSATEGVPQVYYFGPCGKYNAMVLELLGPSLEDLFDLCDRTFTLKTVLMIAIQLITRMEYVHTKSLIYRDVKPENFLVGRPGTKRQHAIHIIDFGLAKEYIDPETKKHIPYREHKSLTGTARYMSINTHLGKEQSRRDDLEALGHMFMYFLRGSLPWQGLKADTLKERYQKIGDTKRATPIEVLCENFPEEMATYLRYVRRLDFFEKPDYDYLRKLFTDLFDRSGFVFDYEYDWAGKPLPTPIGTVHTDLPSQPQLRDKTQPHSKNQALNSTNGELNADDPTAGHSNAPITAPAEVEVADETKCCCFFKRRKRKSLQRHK
Experiment [11] concerns the target Casein kinase II subunit alpha (Homo sapiens, UniProt P68400). The following applies: at 10 µM.
In experiment [12] the target is SRSF protein kinase 1 (Homo sapiens, UniProt Q96SB4). As to the kind of experiment: Selectivity interaction (KinomeScan (DiscoverX)) EUB0000618a SRPK1. To be noted: at 10 µM.
Sequence of SRSF protein kinase 1 (Q96SB4 whole entry): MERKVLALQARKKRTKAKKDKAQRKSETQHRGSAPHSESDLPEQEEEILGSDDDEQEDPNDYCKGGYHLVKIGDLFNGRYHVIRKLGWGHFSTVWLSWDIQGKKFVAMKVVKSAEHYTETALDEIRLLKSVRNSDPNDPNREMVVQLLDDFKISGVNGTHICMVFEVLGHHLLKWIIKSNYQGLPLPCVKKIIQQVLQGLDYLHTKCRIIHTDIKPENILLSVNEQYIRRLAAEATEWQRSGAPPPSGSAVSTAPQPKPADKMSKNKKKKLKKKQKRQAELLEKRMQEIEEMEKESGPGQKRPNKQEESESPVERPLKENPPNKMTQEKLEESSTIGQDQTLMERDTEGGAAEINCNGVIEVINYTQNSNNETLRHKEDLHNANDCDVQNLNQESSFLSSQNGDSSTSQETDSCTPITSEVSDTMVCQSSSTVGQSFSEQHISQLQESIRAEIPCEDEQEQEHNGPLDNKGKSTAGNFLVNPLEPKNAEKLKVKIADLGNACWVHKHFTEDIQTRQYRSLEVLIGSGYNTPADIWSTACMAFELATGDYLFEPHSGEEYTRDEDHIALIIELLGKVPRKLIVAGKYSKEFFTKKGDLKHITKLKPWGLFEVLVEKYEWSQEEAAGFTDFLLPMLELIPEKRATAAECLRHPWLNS
Experiment [13] has as its target ALK tyrosine kinase receptor (Homo sapiens, UniProt Q9UM73). The experiment is described as follows: Selectivity interaction (Upstate Kinase Profiler service (Millipore)) EUB0000056c ALK. The following applies: at 1 µM.

A word on the IC50: it is the concentration needed to halve the response being measured. A higher IC50 goes with lower potency.

Where only a bound is given, the exact number is not on record here.

Sequence of Casein kinase II subunit alpha (P68400 whole entry, looked up): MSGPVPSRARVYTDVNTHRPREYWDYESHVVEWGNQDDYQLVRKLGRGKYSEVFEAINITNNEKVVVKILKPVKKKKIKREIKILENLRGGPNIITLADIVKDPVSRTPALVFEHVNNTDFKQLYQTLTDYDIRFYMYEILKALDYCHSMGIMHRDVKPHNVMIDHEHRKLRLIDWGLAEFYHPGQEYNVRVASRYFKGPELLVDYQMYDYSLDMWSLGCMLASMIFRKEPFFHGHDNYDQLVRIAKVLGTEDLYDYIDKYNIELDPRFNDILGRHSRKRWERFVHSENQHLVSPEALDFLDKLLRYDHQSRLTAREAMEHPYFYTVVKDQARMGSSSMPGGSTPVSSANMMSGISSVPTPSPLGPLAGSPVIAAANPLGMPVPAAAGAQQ

Regarding `Cn1cc(-n2cnc3c(NCc4nc5cc(Cl)c(Cl)cc5[nH]4)nc(N4CCOCC4)nc32)cn1`, the % of inhibition in [1] is -33.3%; in [2], -162%; in experiment [3], -64.3%.

Take `C=CC(=O)Nc1ccc(C(=O)Nc2[nH]nc3c2CN(C(=O)N[C@H](CN(C)C)c2ccccc2)C3(C)C)cc1`: the % of engagement in experiment [4] was -11.3%.

With `CN(C)C/C=C/C(=O)Nc1ccc(C(=O)N2CCCC(Nc3ncc(Cl)c(-c4c[nH]c5ccccc45)n3)C2)cc1` (configuration not stated), the % of control in experiment [5] is 94%.

In turn, `COc1cc(N(C)c2ccnc3ccc(C(F)(F)F)cc23)cc(OC)c1OC` showed a % binding in [6] of 93%.

With `COCCN1CCC(c2cc(CN(C)C(=O)c3cccc(Oc4ccccc4)c3)ccn2)CC1`, the IC50 in experiment [7] was more than 3 nM.

Take `Nc1cnc(N2CCc3cc(S(=O)(=O)Nc4c(F)cc(Cl)cc4F)cc(N4CCCC4=O)c32)nc1` [TP-020n]: the % of control in experiment [8] and in [9] was 100% each time.

In the case of `CC[C@@H]1[C@H](F)C(=O)N[C@@H]1COc1nccc2cc(C(N)=O)c(OC)cc12` [ZIMLOVISERTIB], the % of inhibition in experiment [10] (at 0.01 µM) is 4.3%; in experiment [10] (at 0.04 µM) it was 27.3%; in experiment [10] (at 0.2 µM) it was 67%; in experiment [10] (at 1 µM), 91%; in experiment [10] (at 5 µM) it was 96.9%.

Compound `CCN(CC)CCCCNc1ncc2cc(-c3cc(OC)cc(OC)c3)c(NC(=O)NC(C)(C)C)nc2n1` registered a % of control in experiment [11] of 100%.

`O[C@H]1CC[C@H](Nc2ncc3nc(Nc4c(F)cc(F)cc4F)n([C@H]4CCOC4)c3n2)CC1`: the % of control in experiment [12] worked out at 100%.

With `Cc1ccc(-c2ccc3c(ccc4sc5c(c43)NC[C@@H](C)NC5=O)n2)cn1`, in experiment [13], the % of inhibition stood at 43%.

Source of the values: ChEMBL document CHEMBL5465560, “Selectivity Literature for EUbOPEN Chemogenomic Library” (2024).
